{"source": "patent US20240207228A1", "about": "“A COMBINATION COMPRISING A SPECIFIC HDAC6 INHIBITOR AND AT LEAST ONE CTLA4 CHECKPOINT INHIBITOR” (ITALFARMACO SPA, priority 2021, published 2024)", "key": {"[1]": {"experiment": "Mean level in 24 hours after the efficacious schedule in the mouse", "type": "in vivo", "conditions": "administration schedule that had shown efficacy, used as target for projected doses", "description": "The human doses for ITF3756 were predicted using a physiologically based pharmacokinetic (PBPK) model, through the use of the software GastroPlus™ (Simulation Plus, Lancaster, CA). The target Caverage for projected doses was 200 ng/mL, mean level in 24 hours found after the administration schedule that had shown efficacy in the mouse."}, "PD-L1 [2]": {"tested_on": "PD-L1", "experiment": "Cytokine-induced PD-L1 expression in human monocytes stimulated in vitro", "type": "cell-based"}, "female NOD mice": {"tested_on": "female NOD mice", "experiment": "Diabetes induction in female NOD mice (glycemia)", "type": "in vivo", "conditions": "day 0-21, ITF3756 50 mg/kg os 3x/day, antibodies 500 μg (d0) + 250 μg/mouse ip, diabetes = glucose >250 mg/dL two consecutive days", "description": "NOD mice spontaneously developed diabetes and they represent a widely accepted spontaneous model of Type 1 diabetes mellitus (Pearson et al., 2016, Journal of Autoimmunity 66, 76-88).\nITF3756 was synthetized by the Medicinal Chemistry Dept. of Italfarmaco SpA. ITF3756, batch 9, as powder was solubilized in DMSO and stored at −20° C.\nAntibody treatment was according to Ansari (Ansari et al., 2003, The Journal of experimental medicine 1 98, 63-69)\nGlycemia was evaluated in all mice for 3 weeks from day 0 (start treatment) until day 21 (end of study). Blood glucose levels were measured by glucometer One Touch® Verio. Blood samples were drawn from the tail vein by a prick with a needle. A drop of blood was inserted in a test strip and glucometer automatically calculated the glucose level. Results were shown in the display of the instrument. The instrument measures from 20 to 600 mg/dL. Results below 20 or above 600 mg/dL are visualized by the instrument as “below 20” or “above 600”.\nDiabetes was defined by blood glucose reading of >250 mg/dL for two consecutive days.\nMice were monitored for 3 weeks; during this time, body weight was measured 7 times."}, "[3]": {"tested_on": "4T1 triple negative breast cancer", "experiment": "4T1 breast cancer model, previous experiments with single agents", "type": "in vivo, mouse", "conditions": "each drug as single agent", "description": "[…] mice challenged with syngeneic tumor cell line 4T1 triple negative breast cancer are used.\n4T1 tumor model is considered a poorly immunogenic tumor (Demaria et al., Clin. Cancer Res. 11, 728-734, 2005).\nITF3756 is used at the same dosage used for the treatment of CT26 colon cancer, namely 50 mg/kg (mpk) TID as single agent and in combination with anti CTLA-4 antibody. The latter is administered at 3 mpk 3 times a week on alternate days.\nTumor growth is induced after subcutaneous injection of cell line and mice are monitored for at least three weeks post-injection."}, "PD-L1 [4]": {"tested_on": "PD-L1", "experiment": "PD-L1 expression in mouse immune cells in vivo", "conditions": "ITF3756 50 mg/Kg three times a day"}, "[5]": {"tested_on": "mouse colon carcinoma cell line CT26", "experiment": "Anti-tumor effect in the CT26 murine model (tumor growth inhibition from tumor nodule volume/weight)", "type": "in vivo", "set-up": "key to Statistical significance vs Control group on day 10 / Statistical significance vs Control group on day 12 / Statistical significance vs Control group on day 14 / Statistical significance vs Control group on day 17 / Statistical significance vs Control group on day 19 / Statistical significance vs Control group on day 21 / Statistical significance vs Control group on day 24: n.s.: not significant; *: p < 0.05; **: p < 0.01", "conditions": "for Statistical significance vs Control group on day 10 / Statistical significance vs Control group on day 12 / Statistical significance vs Control group on day 14 / Statistical significance vs Control group on day 17 / Statistical significance vs Control group on day 19 / Statistical significance vs Control group on day 21 / Statistical significance vs Control group on day 24: CT26 tumor growth", "description": "The anti-tumor efficacy of ITF3756, administered in combination with anti-CTLA4 antibody, has been determined using a murine model based on the use of the mouse colon carcinoma cell line CT26. In this model, the CT26 cells are implanted subcutaneously to syngeneic mice and the efficacy is determined as tumor growth inhibition on the basis of the volume of the tumor nodule.\nITF3756 was synthetized by the Medicinal Chemistry Dept. of Italfarmaco SpA. ITF3756, batch 5, as powder was solubilized in DMSO and stored at −20° C. On each day of administration, the solution was diluted with H2O/PEG 400 1:1 to obtain a final solution of H2O/PEG 400 1:1 in DMSO 0.5% at 2.5 and 5.0 mg/mL.\nThe solutions were administered orally by using gavage needles for mice, in a volume of 200 μL (final doses 25 and 50 mg/Kg).\nITF3756 administration started when the tumor nodules were palpable (around day 10 from cells inoculation).\nSyrian hamster IgG Mab anti-mouse CTLA4 was purchased from BioXell (cat. BE0131, clone 9H10), diluted with PBS at 1, 0.3 and 0.1 mg/mL final concentration and stored at +4° C. Each mouse was treated with 200 μL of the respective solution (final doses 10.0, 3.0 and 1.0 mg/Kg).\nAnti-CTLA4 Mab administration started when the tumor nodules were palpable (around day 10 from cells inoculation). Anti-CTLA4 was administered intraperitoneally (ip) once a day on alternate days for a total of 4 treatments, followed by 7 days of wash-out, as reported in table 1. This treatment cycle continued up to the end of the study.\nFemale 6 weeks old BALB/c mice were purchased from Charles River Italia and maintained with food and water ad libitum, under light-dark cycle of 12 hours.\nAfter 5 days of acclimatization, the mice were submitted to tumor cells injection.\nCT26 (murine BALB/c colon carcinoma, CT26.WT ATCC CRL-2638) cells were grown in RPMI 1640 cell culture medium+10% fetal calf serum (FCS).\nThe cells were detached, during the exponential phase, with trypsin, washed with the culture medium without FCS and suspended at 5×10^6 cells/mL final concentration.\nThe cells (1×10^6 cells/mouse) were injected s.c. in the inguinal region of the right flank of the mice in a volume of 200 μL.\nWhen the tumor nodule was palpable in at least 80% of the animals, the mice were randomized in the following experimental groups and drugs administration was started.\nBody weight was measured on alternate days, starting from the first day of drug administration.\nThe volume of subcutaneous tumor nodules was determined on alternate days, according to the following formula (Papagiannoros A. et al. in vivo 20:129-136, 2006):\nwhere D=major diameter of the nodule and d=minor diameter of the nodule.\nThe weight of the tumor nodule was determined by the tumor volume considering a tumor density of 1.05 g/mL (Jensen M. M. et al. BMC Medical Imaging 8(16), 2008).\nThe animals were euthanized when the tumor weight was equal to the 10% of body weight or the tumor nodules were ulcerated (humane end-points).\nThe statistical analysis of the drugs effect was carried out by 2-way ANOVA with Dunnett's multiple comparisons test using GraphPad Prism 8 software."}}}
{"smiles": "O=C(NO)c1ccc(Cn2nnnc2-c2cccs2)cc1", "note": "[ITF3756, N-hydroxy-4-((5-(thiophen-2-yl)-1H-tetrazol-1-yl)methyl)benzamide]", "values": [{"measurement": "Caverage, mean level in 24 hours", "setting": "[1]", "result": 200, "unit": "ng/mL"}, {"measurement": "cytokine-induced expression of PD-L1", "setting": "PD-L1 [2]", "result": "decreases"}, {"measurement": "induction of diabetes", "setting": "female NOD mice", "result": "did not accelerates the induction of autoimmune diabetes"}, {"measurement": "average reduction of tumor growth", "setting": "[3]", "result": "approximately 40%"}, {"measurement": "PD-L1 expression", "setting": "PD-L1 [4]", "result": "decreased"}, {"measurement": "Statistical significance vs Control group on day 10", "setting": "[5]; ITF3756 25 mg/Kg", "result": "n.s."}, {"measurement": "Statistical significance vs Control group on day 12", "setting": "[5]; ITF3756 25 mg/Kg", "result": "n.s."}, {"measurement": "Statistical significance vs Control group on day 14", "setting": "[5]; ITF3756 25 mg/Kg", "result": "n.s."}, {"measurement": "Statistical significance vs Control group on day 17", "setting": "[5]; ITF3756 25 mg/Kg", "result": "n.s."}, {"measurement": "Statistical significance vs Control group on day 19", "setting": "[5]; ITF3756 25 mg/Kg", "result": "n.s."}, {"measurement": "Statistical significance vs Control group on day 21", "setting": "[5]; ITF3756 25 mg/Kg", "result": "n.s."}, {"measurement": "Statistical significance vs Control group on day 24", "setting": "[5]; ITF3756 25 mg/Kg", "result": "n.s."}, {"measurement": "Statistical significance vs Control group on day 10", "setting": "[5]; ITF3756 50 mg/Kg", "result": "n.s."}, {"measurement": "Statistical significance vs Control group on day 12", "setting": "[5]; ITF3756 50 mg/Kg", "result": "n.s."}, {"measurement": "Statistical significance vs Control group on day 14", "setting": "[5]; ITF3756 50 mg/Kg", "result": "n.s."}, {"measurement": "Statistical significance vs Control group on day 17", "setting": "[5]; ITF3756 50 mg/Kg", "result": "n.s."}, {"measurement": "Statistical significance vs Control group on day 19", "setting": "[5]; ITF3756 50 mg/Kg", "result": "n.s."}, {"measurement": "Statistical significance vs Control group on day 21", "setting": "[5]; ITF3756 50 mg/Kg", "result": "* (p < 0.05)"}, {"measurement": "Statistical significance vs Control group on day 24", "setting": "[5]; ITF3756 50 mg/Kg", "result": "n.s."}, {"measurement": "Statistical significance vs Control group on day 10", "setting": "[5]; ITF3756 50 mg/Kg x3", "result": "n.s."}, {"measurement": "Statistical significance vs Control group on day 12", "setting": "[5]; ITF3756 50 mg/Kg x3", "result": "n.s."}, {"measurement": "Statistical significance vs Control group on day 14", "setting": "[5]; ITF3756 50 mg/Kg x3", "result": "n.s."}, {"measurement": "Statistical significance vs Control group on day 17", "setting": "[5]; ITF3756 50 mg/Kg x3", "result": "n.s."}, {"measurement": "Statistical significance vs Control group on day 19", "setting": "[5]; ITF3756 50 mg/Kg x3", "result": "* (p < 0.05)"}, {"measurement": "Statistical significance vs Control group on day 21", "setting": "[5]; ITF3756 50 mg/Kg x3", "result": "** (p < 0.01)"}, {"measurement": "Statistical significance vs Control group on day 24", "setting": "[5]; ITF3756 50 mg/Kg x3", "result": "** (p < 0.01)"}, {"measurement": "inhibition of tumor growth", "setting": "[5]; ITF3756 25 mg/Kg orally once a day, day 24", "result": 7, "unit": "%"}, {"measurement": "tumor weight", "setting": "[5]; ITF3756 25 mg/Kg orally once a day, day 24, control 1.89 g", "result": 1.76, "unit": "g"}, {"measurement": "inhibition of tumor growth", "setting": "[5]; ITF3756 25 mg/Kg orally once a day, entire experimental period", "result": "did not show a significant inhibition of tumor growth"}, {"measurement": "inhibition of tumor growth", "setting": "[5]; ITF3756 50 mg/Kg orally 3 times a day, day 24", "result": 30, "unit": "%"}, {"measurement": "tumor weight", "setting": "[5]; ITF3756 50 mg/Kg orally 3 times a day, day 24, control 1.89 g", "result": 1.32, "unit": "g"}, {"measurement": "inhibition of tumor growth", "setting": "[5]; ITF3756 50 mg/Kg orally once a day, day 21", "result": 34, "unit": "%"}, {"measurement": "tumor weight", "setting": "[5]; ITF3756 50 mg/Kg orally once a day, day 21, control 1.34 g", "result": 0.88, "unit": "g"}, {"measurement": "inhibition of tumor growth", "setting": "[5]; ITF3756 50 mg/Kg orally once a day, day 24", "result": 9, "unit": "%"}, {"measurement": "tumor weight", "setting": "[5]; ITF3756 50 mg/Kg orally once a day, day 24, control 1.89 g", "result": 1.72, "unit": "g"}]}
